Read-outs that look alike come from different tables or passages of the source.
Assays:
ZIKV NS5 RdRp = target: T1, ZIKV NS5 RdRp (Zika virus, UniProt Q32ZE1); assay type: biochemical; conditions: analog triphosphates against ZIKV NS5 RdRp
T1 construct: activity of select analog triphosphates against the ZIKV NS5 RdRp

ZIKV [1] = experiment: ZIKV infectious (cytoprotection, XTT) assay; assay type: cell-based, Zika virus; conditions: read-out: ZIKV EC50
Protocol: (§1) Vero cells were passaged in DMEM medium in T-75 flasks prior to use in the antiviral assay. On the day preceding the assay, the cells were split 1:2 to assure they were in exponential growth phase at the time of infection. The cells were resuspended at […] cells per well in tissue culture medium and added to flat bottom microtiter plates in a volume of […]. The plates were incubated at 37° C./5% CO2 overnight to allow for cell adherence. Separately, Zika virus was titrated in LLCMK2 cells to define the inoculum for use in the antiviral assay. Virus was diluted in DMEM medium such that the amount of virus added to each well in a volume of […] was the amount determined to achieve 85 to 95% cell killing at 5 days post-infection. Following incubation test plates were stained with XTT dye. XTT solution was prepared daily as a stock solution of 1 mg/mL in RPM11640. PMS solution was prepared at 0.15 mg/mL in PBS and stored in the dark at −20° C. XTT/PMS stock was prepared immediately before use by adding […] of PMS per mL of XTT solution. Fifty microliters of XTT/PMS was added to each well of the plate, and the plate was reincubated for 4 hours at 37° C. Plates were sealed with adhesive plate sealers ad shaken gently to mix the soluble formazan product, and the plate was read spectrophotometrically read 450/650 nm with a Molecular Devices Vmax plate reader. The raw data was collected from Softmax Pro and imported into a Microsoft Excel XLfit4 spreadsheet for analysis using four parameter curve fit calculations.

[2] = Cytotoxicity in Vero cells (XTT); assay type: cell-based, African green monkey; conditions: African green monkey
Protocol: as §1

ZIKV [3] = experiment: ZIKV infectious (cytoprotection, XTT) assay; assay type: cell-based; conditions: Zika virus
Vero cells = experiment: Cytotoxicity in Vero cells (XTT); assay type: cell-based, African green monkey
Protocol: as §1

DENV2 New Guinea C = experiment: Anti-Dengue virus cytoprotection assay; assay type: cell-based, Dengue virus type 2
Protocol: Cell Preparation—BHK21 cells (Syrian golden hamster kidney cells, ATCC catalog #CCL-I 0), Vero cells (African green monkey kidney cells, ATCC catalog #CCL-81), or Huh-7 cells (human hepatocyte carcinoma) were passaged in DMEM supplemented with 10% FBS, 2 mM L-glutamine, 100 U/mL penicillin, and 100 μg/mL streptomycin in T-75 flasks prior to use in the antiviral assay. On the day preceding the assay, the cells were split 1:2 to assure they were in an exponential growth phase at the time of infection. Total cell and viability quantification was performed using a hemocytometer and Trypan Blue dye exclusion. Cell viability was greater than 95% for the cells to be utilized in the assay. The cells were resuspended at 3×10^3 ([…] for Vero cells and Huh-7 cells) cells per well in tissue culture medium and added to flat bottom microtiter plates in a volume of 100 μL. The plates were incubated at 37° C./5% CO2 overnight to allow for cell adherence.
Virus Preparation—The Dengue virus type 2 New Guinea C strain was obtained from ATCC (catalog #VR-1584) and was grown in LLC-MK2 (Rhesus monkey kidney cells; catalog #CCL-7.1) cells for the production of stock virus pools. An aliquot of virus pretitered in BHK21 cells was removed from the freezer (−80° C.) and allowed to thaw slowly to room temperature in a biological safety cabinet. Virus was resuspended and diluted into assay medium (DMEM supplemented with 2% heat-inactivated FBS, 2 mM L-glutamine, 100 U/mL penicillin, and 100 μg/mL streptomycin) such that the amount of virus added to each well in a volume of 100 μL was the amount determined to yield 85 to 95% cell killing at 6 days post-infection.
Plate Format—Each plate contains cell control wells (cells only), virus control wells (cells plus virus), triplicate drug toxicity wells per compound (cells plus drug only), as well as triplicate experimental wells (drug plus cells plus virus).
Efficacy and Toxicity XTT-Following incubation at 37° C. in a 5% CO2 incubator, the test plates were stained with the tetrazolium dye XTT (2,3-bis(2-methoxy-4-nitro-5-sulfophenyl)-5-[(phenylamino)carbonyl]-2H-tetrazolium hydroxide). XTT-tetrazolium was metabolized by the mitochondrial enzymes of metabolically active cells to a soluble formazan product, allowing rapid quantitative analysis of the inhibition of virus-induced cell killing by antiviral test substances. XTT solution was prepared daily as a stock of 1 mg/mL in RPMI 1640. Phenazine methosulfate (PMS) solution was prepared at 0.15 mg/mL in PBS and stored in the dark at −20° C. XTT/PMS stock was prepared immediately before use by adding 40 μL of PMS per ml of XTT solution. Fifty microliters of XTT/PMS was added to each well of the plate and the plate was reincubated for 4 hours at 37° C. Plates were sealed with adhesive plate sealers and shaken gently or inverted several times to mix the soluble formazan product and the plate was read spectrophotometrically at 450/650 nm with a Molecular Devices Vmax plate reader.
Data Analysis —Raw data was collected from the Softmax Pro 4.6 software and imported into a Microsoft Excel spreadsheet for analysis. The percent reduction in viral cytopathic effect compared to the untreated virus controls was calculated for each compound. The percent cell control value was calculated for each compound comparing the drug treated uninfected cells to the uninfected cells in medium alone.

HRV-26 = experiment: Human rhinovirus assay (HRV-26); assay type: cell-based; conditions: Human rhinovirus sp., HRV26; Cell Line HeLa
[4] = tested on: C#CC1(O)C(O)[C@@H](COP(=O)(O)OP(=O)(O)OP(=O)(O)O)O[C@H]1n1ccc(=O)[nH]c1=O; experiment: purified protein, by the assay type
[5] = tested on: C#CC1(O)C(O)[C@@H](COP(=O)(O)OP(=O)(O)OP(=O)(O)O)O[C@H]1n1cnc2c(N)ncnc21; experiment: purified protein, by the assay type
[6] = tested on: CC1(O)C(O)[C@@H](COP(=O)(O)OP(=O)(O)OP(=O)(O)O)O[C@H]1n1ccc(N)nc1=O; experiment: purified protein, by the assay type
[7] = tested on: CC1(O)C(O)[C@@H](COP(=O)(O)OP(=O)(O)OP(=O)(O)O)O[C@H]1n1cnc2c(=O)[nH]c(N)nc21; experiment: purified protein, by the assay type
[8] = tested on: CC1(O)C(O)[C@@H](COP(=O)(O)OP(=O)(O)OP(=O)(O)O)O[C@H]1n1cnc2c(N)ncnc21; experiment: purified protein, by the assay type
[9] = tested on: CC1(O)C(O)[C@@H](COP(=O)(O)OP(=O)(O)OP(=O)(O)O)O[C@H]1n1ccc(=O)[nH]c1=O; experiment: purified protein, by the assay type; assay type: biochemical, Zika virus
[10] = Zika virus, Vero, ZIKV infectious assay, Vero cells
[11] = Zika virus, Vero, Cell Line Vero
[12] = Huh-7, Cell Line Huh-7, read-out: ZIKV EC50

T1 sequence (Q32ZE1 2517-3419): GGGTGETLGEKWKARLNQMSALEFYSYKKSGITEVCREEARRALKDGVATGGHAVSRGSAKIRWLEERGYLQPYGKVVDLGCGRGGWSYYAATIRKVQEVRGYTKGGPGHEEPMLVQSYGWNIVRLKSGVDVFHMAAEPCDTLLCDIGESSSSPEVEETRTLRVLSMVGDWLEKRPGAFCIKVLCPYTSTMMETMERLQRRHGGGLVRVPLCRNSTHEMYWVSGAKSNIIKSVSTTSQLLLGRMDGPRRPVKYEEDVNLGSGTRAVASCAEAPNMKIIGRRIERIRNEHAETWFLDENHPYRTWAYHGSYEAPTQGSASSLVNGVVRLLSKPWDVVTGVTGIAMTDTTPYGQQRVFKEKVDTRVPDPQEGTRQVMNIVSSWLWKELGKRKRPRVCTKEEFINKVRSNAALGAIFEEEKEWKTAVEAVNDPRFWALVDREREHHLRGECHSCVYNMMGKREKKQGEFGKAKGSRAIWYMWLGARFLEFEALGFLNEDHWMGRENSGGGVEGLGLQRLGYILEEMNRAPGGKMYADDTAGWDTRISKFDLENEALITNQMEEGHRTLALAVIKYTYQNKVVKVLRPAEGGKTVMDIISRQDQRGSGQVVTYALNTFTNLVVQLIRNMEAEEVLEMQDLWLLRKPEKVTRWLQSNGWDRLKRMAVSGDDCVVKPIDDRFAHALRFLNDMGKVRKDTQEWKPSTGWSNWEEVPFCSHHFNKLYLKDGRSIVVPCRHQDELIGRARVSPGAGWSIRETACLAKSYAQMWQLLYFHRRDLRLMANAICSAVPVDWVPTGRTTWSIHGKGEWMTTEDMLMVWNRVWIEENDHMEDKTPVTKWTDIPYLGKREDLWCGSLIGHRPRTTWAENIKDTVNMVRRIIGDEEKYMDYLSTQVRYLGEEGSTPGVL

## C#CC1(O)C(O)[C@@H](COP(=O)(O)OP(=O)(O)OP(=O)(O)O)O[C@H]1n1cnc2c(N)ncnc21 (some centres unmarked)
ZIKV NS5 RdRp
  ZIKV Polymerase Assay Discrimination: 5

## CC1(O)C(O)[C@@H](COP(=O)(O)OP(=O)(O)OP(=O)(O)O)O[C@H]1n1ccc(N)nc1=O (some centres unmarked)
ZIKV NS5 RdRp
  ZIKV Polymerase Assay Discrimination: 7

## CC1(O)C(O)[C@@H](COP(=O)(O)OP(=O)(O)OP(=O)(O)O)O[C@H]1n1cnc2c(=O)[nH]c(N)nc21 (some centres unmarked)
ZIKV NS5 RdRp
  ZIKV Polymerase Assay Discrimination: 13

## CC1(O)C(O)[C@@H](COP(=O)(O)OP(=O)(O)OP(=O)(O)O)O[C@H]1n1ccc(=O)[nH]c1=O (some centres unmarked)
ZIKV NS5 RdRp
  ZIKV Polymerase Assay Discrimination: 53

## CC1(O)C(O)[C@@H](COP(=O)(O)OP(=O)(O)OP(=O)(O)O)O[C@H]1n1cnc2c(N)ncnc21 (some centres unmarked)
ZIKV NS5 RdRp
  ZIKV Polymerase Assay Discrimination: 12

## C#CC1(O)C(O)[C@@H](COP(=O)(O)OP(=O)(O)OP(=O)(O)O)O[C@H]1n1ccc(=O)[nH]c1=O (some centres unmarked)
ZIKV NS5 RdRp
  ZIKV Polymerase Assay Discrimination: 5

## C#CC1(O)C(O)[C@@H](CO)O[C@H]1n1ccc2c(N)ncnc21 (some centres unmarked)
ZIKV [1]; [10]
  EC50: 0.34 µM
[2]
  CC50 at 5 days: 35.4 µM

## CC1(O)C(O)[C@@H](CO)O[C@H]1n1ccc(N)nc1=O (some centres unmarked)
ZIKV [1]; [10]
  EC50: 0.13 µM
[2]
  CC50 at 5 days: 9.57 µM

## CC1(O)C(O)[C@@H](CO)O[C@H]1n1cnc2c(=O)[nH]c(N)nc21 (some centres unmarked)
ZIKV [1]; [10]
  EC50: 7.23 µM
[2]
  CC50 at 5 days: > 100 µM

## CC(C)(C)C(=O)OCOP(=O)(OCOC(=O)C(C)(C)C)OC[C@H]1O[C@@H](n2ccc(=O)[nH]c2=O)C(C)(O)C1O (some centres unmarked)
ZIKV [1]; [10]
  EC50: 3.57 µM
[2]
  CC50 at 5 days: 26.4 µM

## C#C[C@@]1(O)[C@H](O)[C@@H](CO)O[C@H]1n1ccc(=O)[nH]c1=O
ZIKV [1]; [11]
  EC50: > 100 µM
ZIKV [3]; [12]
  EC50: > 100 µM

## C#C[C@@]1(O)[C@H](O)[C@@H](CO)O[C@H]1n1cc(F)c(=O)[nH]c1=O
ZIKV [3]; [12]
  EC50: > 100 µM

## C#C[C@@]1(O)[C@H](O)[C@@H](CO[P@@](=O)(N[C@@H](C)C(=O)OC(C)C)Oc2ccccc2)O[C@H]1n1cc(F)c(=O)[nH]c1=O
ZIKV [1]; Zika virus, Vero
  EC50: > 100 µM
ZIKV [3]; Huh-7, read-out: ZIKV EC50
  EC50: 13 µM

## C#CC1(O)C(O)[C@@H](COP(=O)(OCOC(=O)C(C)(C)C)OCOC(=O)C(C)(C)C)O[C@H]1n1cc(F)c(=O)[nH]c1=O (some centres unmarked)
ZIKV [3]; [12]
  EC50: 5.3 µM

## CC1(O)C(O)[C@@H](CO)O[C@H]1n1cnc2c(N)ncnc21 (some centres unmarked) [drawing 675]
ZIKV [1]; ZIKV infectious assay, Vero cells
  EC50: 2.46 µM
Vero cells
  CC50: > 100 µM

## CC1(O)C(O)[C@@H](CO)O[C@H]1n1cnc2c(N)ncnc21 (some centres unmarked) [drawing 678]
ZIKV [1]; [10]
  EC50: 2.75 µM
[2]
  CC50 at 5 days: > 100 µM

## C#CC1(O)C(O)[C@@H](COP(=O)(OCOC(=O)C(C)(C)C)OCOC(=O)C(C)(C)C)O[C@H]1n1ccc(=O)[nH]c1=O (some centres unmarked) [drawing 679]
ZIKV [1]; [10]
  EC50: 1.06 µM
[2]
  CC50 at 5 days: 11 µM

## C#C[C@@]1(O)[C@H](O)[C@@H](CO[P@@](=O)(N[C@@H](C)C(=O)OC(C)C)Oc2ccccc2)O[C@H]1n1ccc2c(N)ncnc21 [drawing 740]
DENV2 New Guinea C; DENV2, BHK-21, read-out: DENV2 New Guinea C EC50
  EC50: 27.7 µM

## C#C[C@@]1(O)[C@H](O)[C@@H](CO)O[C@H]1n1cnc2cnc(N)nc21 [drawing 741]
DENV2 New Guinea C; DENV2, Vero, read-out: DENV2 New Guinea C EC50
  EC50: > 100 µM

## C#C[C@@]1(O)[C@H](O)[C@@H](CO[P@@](=O)(N[C@@H](C)C(=O)OC(C)C)Oc2ccccc2)O[C@H]1n1ccc(=O)[nH]c1=O [drawing 742]
HRV-26
  EC50: 3.22 µM

## C#C[C@@]1(O)[C@H](O)[C@@H](CO)O[C@H]1n1cnc2cnc(N)nc21 [drawing 743]
HRV-26
  EC50: > 100 µM

## C#C[C@@]1(O)[C@H](O)[C@@H](CO[P@@](=O)(N[C@@H](C)C(=O)OC(C)C)Oc2ccccc2)O[C@H]1n1ccc2c(N)ncnc21 [drawing 744]
ZIKV [3]; Huh-7, read-out: ZIKV EC50
  EC50: 0.001 µM

## C#C[C@@]1(O)[C@H](O)[C@@H](CO[P@@](=O)(N[C@@H](C)C(=O)OC(C)C)Oc2ccccc2)O[C@H]1n1ccc(=O)[nH]c1=O [drawing 746]
ZIKV [1]; Zika virus, Vero
  EC50: > 100 µM
ZIKV [3]; Huh-7, read-out: ZIKV EC50
  EC50: 0.5 µM

## C#C[C@@]1(O)[C@H](O)[C@@H](CO)O[C@H]1n1cnc2cnc(N)nc21 [drawing 747]
ZIKV [3]; HeLa, Cell Line HeLa, read-out: ZIKV EC50
  EC50: > 100 µM

## C#C[C@@]1(O)[C@H](O)[C@@H](CO)O[C@H]1n1cnc2cnc(N)nc21 [drawing 751]
ZIKV [1]; [11]
  EC50: > 100 µM

## ZIKV NS5 RdRp (Zika virus)
[4]
  Km: 6.59 µM
[5]
  Km: 1.26 µM
[6]
  Km: 1.45 µM
[7]
  Km: 2.82 µM
[8]
  Km: 3.03 µM
[9]
  Km: 72.82 µM
